From patent publication US10799507B2, “5-(7H-pyrrolo[2,3-d]pyrimidin-4-yl)-5-azaspiro[2.5]octane-8-carboxylic acid derivatives as novel JAK kinase inhibitors” (LEO Pharma A/S, priority 2017, dated 2020)

Columns and labels:
TYK2 = TYK2 (Homo sapiens (Human), UniProt P29597); test: JAK kinase assay (HTRF), TYK2; assay type: biochemical; details: catalytic domain, ATP at Km (13 μM)
Method in brief: (§1)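 HTRF read-out of biotinylated TK peptide phosphorylation (1 μM) after a 20-30 min RT reaction in pH 7.0 Hepes buffer with 5 mM MgCl2 and 0.75% DMSO. JAK3 (His-tagged catalytic domain) used 2 μM ATP; TYK2 (GST-tagged, aa 871-1187) used 13 μM ATP plus 50 nM SEB, each at ATP Km.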

JAK3 = JAK3 (Homo sapiens (Human), UniProt P52333); test: JAK kinase assay (HTRF), JAK3; assay type: biochemical; details: catalytic domain, ATP at Km (2 μM)
Chain of JAK3 (P52333 822-1111): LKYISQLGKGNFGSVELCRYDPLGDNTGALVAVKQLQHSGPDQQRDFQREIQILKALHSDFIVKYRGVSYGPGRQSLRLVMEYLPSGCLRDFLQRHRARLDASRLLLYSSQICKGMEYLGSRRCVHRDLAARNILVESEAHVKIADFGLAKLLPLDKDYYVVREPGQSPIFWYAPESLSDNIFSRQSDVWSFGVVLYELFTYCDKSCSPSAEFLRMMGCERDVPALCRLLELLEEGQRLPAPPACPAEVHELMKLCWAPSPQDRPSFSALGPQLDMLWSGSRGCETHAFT
Method in brief: as §1

[1] = in vitro metabolic stability in human liver microsomes; assay type: in vitro ADME; details: human, liver microsomes, 0.5 μM compound, 0.5 mg/mL microsomes, NADPH, 40 min, 37° C.; read-out: Human liver microsome Clapp (apparent intrinsic clearance)
Experimental: To assess the in vitro metabolic stability, the compounds (0.5 μM) were incubated in duplicates with human liver microsomes (0.5 mg/mL) in phosphate buffer and NADPH, in 96-well plates for 40 min (37° C.), using a liquid handling robot (Hamilton Microlab Star). Sample aliquots were taken at 0, 5, 10, 20 and 40 min, and dispensed into cold acetonitrile, in order to stop the reactions. The plates were centrifuged for 30 minutes before the samples were analyzed using liquid chromatography coupled to a time-of-flight mass spectrometer (AB Sciex API5600). The compound depletion over time was used to estimate the elimination rate constant, from which the apparent intrinsic clearance, Clapp, was calculated and the values are listed in Table 2.

JAK1 = JAK1 (Homo sapiens (Human), UniProt P23458); test: JAK kinase assay (HTRF), JAK1; assay type: biochemical; details: catalytic domain, ATP at Km (7 μM)
Chain of JAK1 (P23458 850-1154): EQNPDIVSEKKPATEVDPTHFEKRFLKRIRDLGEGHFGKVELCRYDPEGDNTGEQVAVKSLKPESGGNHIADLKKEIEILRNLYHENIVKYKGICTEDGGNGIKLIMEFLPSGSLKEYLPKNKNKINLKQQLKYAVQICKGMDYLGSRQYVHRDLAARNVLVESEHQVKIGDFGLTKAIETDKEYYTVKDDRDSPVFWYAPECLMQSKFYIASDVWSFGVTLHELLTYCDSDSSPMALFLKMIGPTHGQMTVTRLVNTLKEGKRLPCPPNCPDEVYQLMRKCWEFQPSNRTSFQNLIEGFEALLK
Method in brief: (§2)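 Catalytic-domain human JAK1 (GST-tagged, aa 850-1154) or His-tagged JAK2, baculovirus-expressed, phosphorylated 1 µM biotinylated TK peptide at Km ATP (JAK1 7 µM, 10 mM MgCl2, 50 nM SEB; JAK2 4 µM, 5 mM MgCl2) in pH 7.0 Hepes, 20-30 min RT. EDTA stop; overnight streptavidin-XL665/cryptate HTRF read.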

JAK2 = JAK2 (Homo sapiens (Human), UniProt O60674); test: JAK kinase assay (HTRF), JAK2; assay type: biochemical; details: catalytic domain, ATP at Km (4 μM)
Chain of JAK2 (O60674 849-1124): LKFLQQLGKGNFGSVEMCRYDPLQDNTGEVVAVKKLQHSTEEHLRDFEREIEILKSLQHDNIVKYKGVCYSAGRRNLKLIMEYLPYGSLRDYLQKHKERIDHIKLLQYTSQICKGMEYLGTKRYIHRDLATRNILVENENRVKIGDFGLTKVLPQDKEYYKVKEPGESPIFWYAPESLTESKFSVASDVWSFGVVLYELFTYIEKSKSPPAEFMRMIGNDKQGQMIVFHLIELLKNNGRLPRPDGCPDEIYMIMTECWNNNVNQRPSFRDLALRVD
Method in brief: as §2

Chain of TYK2 (P29597 871-1187): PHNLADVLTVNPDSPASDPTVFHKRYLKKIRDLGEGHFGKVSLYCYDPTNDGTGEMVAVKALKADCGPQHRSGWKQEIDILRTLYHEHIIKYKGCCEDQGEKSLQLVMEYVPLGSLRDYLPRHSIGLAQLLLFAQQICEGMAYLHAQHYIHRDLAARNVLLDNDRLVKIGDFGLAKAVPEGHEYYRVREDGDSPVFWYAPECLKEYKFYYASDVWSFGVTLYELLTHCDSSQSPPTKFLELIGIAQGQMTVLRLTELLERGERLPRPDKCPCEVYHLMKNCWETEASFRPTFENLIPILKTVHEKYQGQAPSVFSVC

| Structure (SMILES) | EC50 (TYK2) [nM] | EC50 (JAK3) [nM] | CLint scaled at 0.5 μM [1] [mL/min/kg] | EC50 (JAK1) [nM] | EC50 (JAK2) [nM] |
| --- | --- | --- | --- | --- | --- |
| N#CCC1(COC(=O)C2CCN(c3ncnc4[nH]ccc34)CC23CC3)CC1 (stereo not shown) [Example 164, [1-(cyanomethyl)cyclopropyl]methyl 5-(7H-pyrrolo[2,3-d]pyrimidin-4-yl)-5-azaspiro[2.5]octane-8-carboxylate] | 70 | 19 | > 200 | 4 | 5 |
| O=C(N[C@@H](CO)[C@@H](O)c1ccc(F)cc1)[C@H]1CCN(c2ncnc3[nH]ccc23)CC12CC2 [Example 9, (8S)-N-[(1S,2S)-2-(4-fluorophenyl)-2-hydroxy-1-(hydroxymethyl)ethyl]-5-(7H-pyrrolo[2,3-d]pyrimidin-4-yl)-5-azaspiro[2.5]octane-8-carboxamide] | 7.7 | 7 | > 200 | 0.7 | 1.6 |
| O=C(NC[C@H](O)C1CCOCC1)[C@H]1CCN(c2ncnc3[nH]ccc23)CC12CC2 [Example 10, (8S)-N-[(2R)-2-hydroxy-2-tetrahydropyran-4-yl-ethyl]-5-(7H-pyrrolo[2,3-d]pyrimidin-4-yl)-5-azaspiro[2.5]octane-8-carboxamide] | 10.8 | 11.7 | 28 | 0.8 | 2.9 |
| N#Cc1ccc([C@@H](CO)NC(=O)C2CCN(c3ncnc4[nH]ccc34)CC23CC3)cc1 (stereo partly drawn) [Example 94, N-[(1S)-1-(4-cyanophenyl)-2-hydroxy-ethyl]-5-(7H-pyrrolo[2,3-d]pyrimidin-4-yl)-5-azaspiro[2.5]octane-8-carboxamide] | 967 | 91.1 | 23 | 8.6 | 53.7 |
| O=C(NC[C@H](O)C1CCC1)[C@H]1CCN(c2ncnc3[nH]ccc23)CC12CC2 [Example 25, (8S)-N-[(2R)-2-cyclobutyl-2-hydroxy-ethyl]-5-(7H-pyrrolo[2,3-d]pyrimidin-4-yl)-5-azaspiro[2.5]octane-8-carboxamide] | 11.1 | 13.6 | 46 | 1.3 | 3.4 |
| O=C(OCC1(CO)CS(=O)(=O)C1)[C@H]1CCN(c2ncnc3[nH]ccc23)CC12CC2 [Example 162, [3-(hydroxymethyl)-1,1-dioxo-thietan-3-yl]methyl (8S)-5-(7H-pyrrolo[2,3-d]pyrimidin-4-yl)-5-azaspiro[2.5]octane-8-carboxylate] | 3.6 | 1.5 | < 10 | 0.2 | 0.6 |
| O=C(OCC1(CO)CCCC1)[C@H]1CCN(c2ncnc3[nH]ccc23)CC12CC2 [Example 159, [1-(hydroxymethyl)cyclopentyl]methyl (8S)-5-(7H-pyrrolo[2,3-d]pyrimidin-4-yl)-5-azaspiro[2.5]octane-8-carboxylate] | 5.1 | 3.1 | > 200 | 0.5 | 1.3 |
| C[C@H](NC(=O)[C@H]1CCN(c2ncnc3[nH]ccc23)CC12CC2)[C@H](O)c1ccc(F)cc1 [Example 45, (8S)-N-[(1S,2R)-2-(4-fluorophenyl)-2-hydroxy-1-methyl-ethyl]-5-(7H-pyrrolo[2,3-d]pyrimidin-4-yl)-5-azaspiro[2.5]octane-8-carboxamide] | 37.9 | 15.7 | > 200 | 3.1 | 4.6 |
| O=C(N[C@@H](CO)[C@H](O)c1ccc(F)cc1)[C@H]1CCN(c2ncnc3[nH]ccc23)CC12CC2 [Example 50, (8S)-N-[(1S,2R)-2-(4-fluorophenyl)-2-hydroxy-1-(hydroxymethyl)ethyl]-5-(7H-pyrrolo[2,3-d]pyrimidin-4-yl)-5-azaspiro[2.5]octane-8-carboxamide] | 53.2 | 22.7 | 109 | 3.5 | 7 |
| N#Cc1ccc([C@H](CO)NC(=O)C2CCN(c3ncnc4[nH]ccc34)CC23CC3)cc1 (stereo partly drawn) [Example 19, N-[(1R)-1-(4-cyanophenyl)-2-hydroxy-ethyl]-5-(7H-pyrrolo[2,3-d]pyrimidin-4-yl)-5-azaspiro[2.5]octane-8-carboxamide] | 109 | 8.4 | 88 | 1.1 | 4 |
| N#Cc1ccc(C(O)CNC(=O)C2CCN(c3ncnc4[nH]ccc34)CC23CC3)cc1 (stereo not shown) [Example 39, N-[2-(4-cyanophenyl)-2-hydroxy-ethyl]-5-(7H-pyrrolo[2,3-d]pyrimidin-4-yl)-5-azaspiro[2.5]octane-8-carboxamide] | 75.4 | 11.5 | 186 | 2.4 | 4.8 |
| C[C@H](NC(=O)[C@H]1CCN(c2ncnc3[nH]ccc23)CC12CC2)[C@@H](O)c1ccc(F)cc1 [Example 6, (8S)-N-[(1S,2S)-2-(4-fluorophenyl)-2-hydroxy-1-methyl-ethyl]-5-(7H-pyrrolo[2,3-d]pyrimidin-4-yl)-5-azaspiro[2.5]octane-8-carboxamide] | 7 | 7.4 | > 200 | 0.6 | 1.4 |
| C[C@H](NC(=O)[C@H]1CCN(c2ncnc3[nH]ccc23)CC12CC2)c1ccc(C#N)cc1F [Example 20, (8S)-N-[(1S)-1-(4-cyano-2-fluoro-phenyl)ethyl]-5-(7H-pyrrolo[2,3-d]pyrimidin-4-yl)-5-azaspiro[2.5]octane-8-carboxamide] | 51.3 | 17.6 | 161 | 1.1 | 3.1 |
| O=C(OCC1(CO)CCC1)[C@H]1CCN(c2ncnc3[nH]ccc23)CC12CC2 [Example 157, [1-(hydroxymethyl)cyclobutyl]methyl (8S)-5-(7H-pyrrolo[2,3-d]pyrimidin-4-yl)-5-azaspiro[2.5]octane-8-carboxylate] | 9 | 6.6 | > 200 | 0.8 | 2.1 |
| N#Cc1ccc([C@H](O)CNC(=O)[C@H]2CCN(c3ncnc4[nH]ccc34)CC23CC3)cc1 [Example 8, (8S)-N-[(2S)-2-(4-cyanophenyl)-2-hydroxy-ethyl]-5-(7H-pyrrolo[2,3-d]pyrimidin-4-yl)-5-azaspiro[2.5]octane-8-carboxamide] | 17.7 | 4.9 | > 200 | 0.6 | 2.7 |
| O=C(NCC1CCCC1)C1CCN(c2ncnc3[nH]ccc23)CC12CC2 (stereo not shown) [Example 82, N-(cyclopentylmethyl)-5-(7H-pyrrolo[2,3-d]pyrimidin-4-yl)-5-azaspiro[2.5]octane-8-carboxamide] | 400 | 38.7 | 198 | 6.8 | 11.5 |
| C[C@@](CO)(NC(=O)[C@H]1CCN(c2ncnc3[nH]ccc23)CC12CC2)c1ccc(C#N)cn1 [Example 57, (8S)-N-[(1R)-1-(5-cyano-2-pyridyl)-2-hydroxy-1-methyl-ethyl]-5-(7H-pyrrolo[2,3-d]pyrimidin-4-yl)-5-azaspiro[2.5]octane-8-carboxamide] | 193 | 21.3 | 39 | 4.1 | 9 |
| Cc1cc([C@H](O)CNC(=O)[C@H]2CCN(c3ncnc4[nH]ccc34)CC23CC3)ncc1F [Example 44, (8S)-N-[(2R)-2-(5-fluoro-4-methyl-2-pyridyl)-2-hydroxy-ethyl]-5-(7H-pyrrolo[2,3-d]pyrimidin-4-yl)-5-azaspiro[2.5]octane-8-carboxamide] | 63.2 | 68.5 | > 200 | 3.1 | 15.8 |
| C[C@H](NC(=O)[C@H]1CCN(c2ncnc3[nH]ccc23)CC12CC2)[C@@H](O)c1ccc(F)cn1 [Example 41, (8S)-N-[(1S,2R)-2-(5-fluoro-2-pyridyl)-2-hydroxy-1-methyl-ethyl]-5-(7H-pyrrolo[2,3-d]pyrimidin-4-yl)-5-azaspiro[2.5]octane-8-carboxamide] | 33.5 | 48.9 | 166 | 2.5 | 5 |
| N#Cc1ccc([C@@H](O)CNC(=O)[C@H]2CCN(c3ncnc4[nH]ccc34)CC23CC3)cc1 [Example 29, (8S)-N-[(2R)-2-(4-cyanophenyl)-2-hydroxy-ethyl]-5-(7H-pyrrolo[2,3-d]pyrimidin-4-yl)-5-azaspiro[2.5]octane-8-carboxamide] | 40.4 | 6.5 | 115 | 1.4 | 2.9 |
